In ChEMBL document CHEMBL2177025, “Chemical proteomics-based analysis of off-target binding profiles for rosiglitazone and pioglitazone: clues for assessing potential for cardiotoxicity” (J Med Chem, 2012):
Calls of active or inactive are those of the source.

What was measured:
[1] = biological target: Hydroxyacyl-coenzyme A dehydrogenase, mitochondrial (Rattus norvegicus) (UniProt Q9WVK7); assay: Binding affinity to mitochondrial short-chain L-3-hydroxyacyl-coenzyme A dehydrogenase in Sprague-Dawley rat heart homogenate after 15 mins by chromatographic analysis; format: tissue-based
Chain of Hydroxyacyl-coenzyme A dehydrogenase, mitochondrial (Rattus norvegicus) (Q9WVK7 whole entry): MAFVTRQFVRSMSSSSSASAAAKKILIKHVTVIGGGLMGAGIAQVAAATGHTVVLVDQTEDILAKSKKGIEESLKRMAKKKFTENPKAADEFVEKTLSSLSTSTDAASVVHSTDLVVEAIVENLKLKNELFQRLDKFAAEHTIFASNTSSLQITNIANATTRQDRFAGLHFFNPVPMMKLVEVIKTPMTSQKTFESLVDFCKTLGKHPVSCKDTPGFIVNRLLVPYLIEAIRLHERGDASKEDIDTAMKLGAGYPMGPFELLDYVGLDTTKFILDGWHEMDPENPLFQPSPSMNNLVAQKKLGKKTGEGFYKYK

[2] = biological target: Dihydrolipoyllysine-residue succinyltransferase component of 2-oxoglutarate dehydrogenase complex, mitochondrial (Mus musculus) (UniProt Q9D2G2); assay: Binding affinity to mouse mitochondrial dihydrolipoyllysine-residue succinyltransferase component of 2-oxoglutarate dehydrogenase complex by chromatographic analysis
Chain of Dihydrolipoyllysine-residue succinyltransferase component of 2-oxoglutarate dehydrogenase complex, mitochondrial (Mus musculus) (Q9D2G2 whole entry, one chain of several): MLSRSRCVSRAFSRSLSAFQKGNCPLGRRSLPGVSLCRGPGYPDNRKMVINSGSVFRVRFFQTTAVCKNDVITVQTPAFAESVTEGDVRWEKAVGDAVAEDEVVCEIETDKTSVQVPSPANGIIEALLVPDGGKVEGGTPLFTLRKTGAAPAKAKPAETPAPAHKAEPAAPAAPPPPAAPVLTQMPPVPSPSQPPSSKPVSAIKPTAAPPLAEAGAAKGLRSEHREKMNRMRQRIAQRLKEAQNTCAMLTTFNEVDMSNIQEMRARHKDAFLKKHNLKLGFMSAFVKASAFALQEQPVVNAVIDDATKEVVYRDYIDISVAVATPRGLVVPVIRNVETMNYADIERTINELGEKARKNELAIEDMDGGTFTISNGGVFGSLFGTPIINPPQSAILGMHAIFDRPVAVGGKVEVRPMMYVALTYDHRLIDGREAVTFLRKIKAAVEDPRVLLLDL

[3] = biological target: Pyruvate dehydrogenase E1 component subunit alpha, somatic form, mitochondrial (Rattus norvegicus) (UniProt P26284); assay: Binding affinity to mitochondrial pyruvate dehydrogenase E1 component subunit alpha in Sprague-Dawley rat heart homogenate after 15 mins by chromatographic analysis; format: tissue-based
Chain of Pyruvate dehydrogenase E1 component subunit alpha, somatic form, mitochondrial (Rattus norvegicus) (P26284 whole entry): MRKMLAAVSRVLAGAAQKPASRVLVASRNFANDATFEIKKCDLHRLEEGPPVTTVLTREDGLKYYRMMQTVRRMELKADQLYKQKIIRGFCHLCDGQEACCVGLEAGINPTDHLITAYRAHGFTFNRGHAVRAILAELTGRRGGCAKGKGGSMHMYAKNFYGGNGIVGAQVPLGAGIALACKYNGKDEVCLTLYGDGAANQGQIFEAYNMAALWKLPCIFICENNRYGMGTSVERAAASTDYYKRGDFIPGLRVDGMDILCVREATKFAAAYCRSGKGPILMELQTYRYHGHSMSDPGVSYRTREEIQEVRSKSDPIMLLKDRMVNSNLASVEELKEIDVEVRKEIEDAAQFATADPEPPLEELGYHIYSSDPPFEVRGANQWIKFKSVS

[4] = biological target: L-lactate dehydrogenase A chain (Rattus norvegicus) (UniProt P04642); assay: Binding affinity to L-lactate dehydrogenase A chain in Sprague-Dawley rat heart homogenate after 15 mins by chromatographic analysis; format: tissue-based
[5] = biological target: Short-chain specific acyl-CoA dehydrogenase, mitochondrial (Rattus norvegicus) (UniProt P15651); assay: Binding affinity to mitochondrial short-chain specific acyl-CoA dehydrogenase in Sprague-Dawley rat heart homogenate after 15 mins by chromatographic analysis; format: tissue-based
[6] = biological target: T1, Dihydrolipoyl dehydrogenase, mitochondrial (Mus musculus) (UniProt O08749); assay: Binding affinity to mouse mitochondrial dihydrolipoyl dehydrogenase by chromatographic analysis relative to rosiglitazone
T1 sequence (whole entry): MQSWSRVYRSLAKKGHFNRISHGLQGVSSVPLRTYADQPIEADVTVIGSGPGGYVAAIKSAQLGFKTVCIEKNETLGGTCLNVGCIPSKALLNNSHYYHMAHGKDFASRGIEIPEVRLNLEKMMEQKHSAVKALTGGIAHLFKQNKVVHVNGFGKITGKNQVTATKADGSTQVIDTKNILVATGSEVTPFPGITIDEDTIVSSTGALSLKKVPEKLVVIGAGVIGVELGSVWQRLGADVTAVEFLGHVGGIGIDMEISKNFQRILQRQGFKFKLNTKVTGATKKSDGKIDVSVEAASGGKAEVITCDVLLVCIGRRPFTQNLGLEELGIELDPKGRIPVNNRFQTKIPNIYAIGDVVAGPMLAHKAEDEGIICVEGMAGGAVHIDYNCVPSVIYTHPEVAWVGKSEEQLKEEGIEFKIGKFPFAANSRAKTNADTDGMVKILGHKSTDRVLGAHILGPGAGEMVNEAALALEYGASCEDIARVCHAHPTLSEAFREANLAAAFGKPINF

[7] = biological target: Malate dehydrogenase, cytoplasmic (Mus musculus) (UniProt P14152); assay: Binding affinity to mouse cytoplasmic malate dehydrogenase by chromatographic analysis
Chain of Malate dehydrogenase, cytoplasmic (Mus musculus) (P14152 whole entry): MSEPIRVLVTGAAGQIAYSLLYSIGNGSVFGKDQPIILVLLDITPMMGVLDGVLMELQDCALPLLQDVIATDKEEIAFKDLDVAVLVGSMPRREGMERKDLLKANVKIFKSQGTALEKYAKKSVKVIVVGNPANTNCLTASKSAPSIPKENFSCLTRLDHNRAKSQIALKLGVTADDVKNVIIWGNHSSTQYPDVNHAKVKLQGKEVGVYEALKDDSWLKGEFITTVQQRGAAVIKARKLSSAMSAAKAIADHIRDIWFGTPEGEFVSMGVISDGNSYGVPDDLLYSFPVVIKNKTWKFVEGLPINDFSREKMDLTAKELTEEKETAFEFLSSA

[8] = biological target: Medium-chain specific acyl-CoA dehydrogenase, mitochondrial (Rattus norvegicus) (UniProt P08503); assay: Binding affinity to mitochondrial medium-chain specific acyl-CoA dehydrogenase in Sprague-Dawley rat heart homogenate after 15 mins by chromatographic analysis; format: tissue-based
Chain of Medium-chain specific acyl-CoA dehydrogenase, mitochondrial (Rattus norvegicus) (P08503 whole entry): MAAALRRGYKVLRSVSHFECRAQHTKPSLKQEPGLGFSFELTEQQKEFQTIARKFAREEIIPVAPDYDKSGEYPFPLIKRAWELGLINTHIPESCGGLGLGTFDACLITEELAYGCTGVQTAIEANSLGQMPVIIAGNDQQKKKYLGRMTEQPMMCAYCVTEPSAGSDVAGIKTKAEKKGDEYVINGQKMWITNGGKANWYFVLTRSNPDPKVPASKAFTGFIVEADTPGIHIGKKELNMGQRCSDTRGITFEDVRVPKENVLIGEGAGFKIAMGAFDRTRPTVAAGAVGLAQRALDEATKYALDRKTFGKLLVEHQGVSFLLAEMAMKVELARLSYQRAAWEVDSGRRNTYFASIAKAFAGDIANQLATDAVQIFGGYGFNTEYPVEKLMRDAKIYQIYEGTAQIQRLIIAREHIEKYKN

[9] = biological target: Isocitrate dehydrogenase [NADP], mitochondrial (Mus musculus) (UniProt P54071); assay: Binding affinity to mouse mitochondrial isocitrate dehydrogenase by chromatographic analysis
Chain of Isocitrate dehydrogenase [NADP], mitochondrial (Mus musculus) (P54071 whole entry): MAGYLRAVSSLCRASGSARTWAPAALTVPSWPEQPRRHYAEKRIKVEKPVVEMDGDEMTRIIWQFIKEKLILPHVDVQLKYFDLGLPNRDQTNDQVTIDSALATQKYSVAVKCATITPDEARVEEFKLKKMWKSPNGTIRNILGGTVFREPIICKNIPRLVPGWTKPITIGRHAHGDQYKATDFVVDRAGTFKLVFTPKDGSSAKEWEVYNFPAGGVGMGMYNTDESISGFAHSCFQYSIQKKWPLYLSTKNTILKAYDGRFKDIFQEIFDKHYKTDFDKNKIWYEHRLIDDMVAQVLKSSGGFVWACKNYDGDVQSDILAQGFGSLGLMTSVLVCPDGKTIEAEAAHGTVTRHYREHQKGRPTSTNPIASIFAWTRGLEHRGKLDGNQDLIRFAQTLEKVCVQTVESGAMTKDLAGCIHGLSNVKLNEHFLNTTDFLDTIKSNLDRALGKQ

[10] = biological target: Very long-chain specific acyl-CoA dehydrogenase, mitochondrial (Rattus norvegicus) (UniProt P45953); assay: Binding affinity to mitochondrial very long-chain specific acyl-CoA dehydrogenase in Sprague-Dawley rat heart homogenate after 15 mins by chromatographic analysis; format: tissue-based
[11] = biological target: 2-oxoglutarate dehydrogenase complex component E1 (Mus musculus) (UniProt Q60597); assay: Binding affinity to mouse mitochondrial 2-oxoglutarate dehydrogenase E1 component by chromatographic analysis
Chain of 2-oxoglutarate dehydrogenase complex component E1 (Mus musculus) (Q60597 whole entry, one chain of several): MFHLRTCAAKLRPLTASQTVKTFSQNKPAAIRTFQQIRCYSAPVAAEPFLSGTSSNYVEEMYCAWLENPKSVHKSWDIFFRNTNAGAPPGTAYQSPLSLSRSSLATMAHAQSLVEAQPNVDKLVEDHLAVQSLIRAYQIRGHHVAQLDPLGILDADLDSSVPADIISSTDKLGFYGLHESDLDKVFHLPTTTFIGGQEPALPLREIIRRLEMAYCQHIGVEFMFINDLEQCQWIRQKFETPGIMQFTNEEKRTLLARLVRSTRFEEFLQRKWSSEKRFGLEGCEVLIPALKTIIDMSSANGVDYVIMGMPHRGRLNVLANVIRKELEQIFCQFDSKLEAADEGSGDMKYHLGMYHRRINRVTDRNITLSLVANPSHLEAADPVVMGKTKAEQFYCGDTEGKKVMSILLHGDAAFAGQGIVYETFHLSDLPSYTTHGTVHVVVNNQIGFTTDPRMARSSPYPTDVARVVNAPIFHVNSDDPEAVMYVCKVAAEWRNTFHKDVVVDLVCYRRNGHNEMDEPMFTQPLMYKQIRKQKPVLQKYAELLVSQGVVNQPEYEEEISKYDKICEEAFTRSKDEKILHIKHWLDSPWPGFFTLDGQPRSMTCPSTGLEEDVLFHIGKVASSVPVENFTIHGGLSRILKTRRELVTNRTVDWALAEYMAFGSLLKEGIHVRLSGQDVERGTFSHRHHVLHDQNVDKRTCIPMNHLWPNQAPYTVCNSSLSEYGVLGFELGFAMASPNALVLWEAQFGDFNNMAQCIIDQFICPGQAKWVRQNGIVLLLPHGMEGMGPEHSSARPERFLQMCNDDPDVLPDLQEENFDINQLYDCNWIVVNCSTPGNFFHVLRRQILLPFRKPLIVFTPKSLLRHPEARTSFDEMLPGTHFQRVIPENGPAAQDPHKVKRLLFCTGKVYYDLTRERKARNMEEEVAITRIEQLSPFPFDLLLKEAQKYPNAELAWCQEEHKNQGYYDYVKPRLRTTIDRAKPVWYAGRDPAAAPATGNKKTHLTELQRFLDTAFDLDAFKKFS

[12] = biological target: Glyceraldehyde-3-phosphate dehydrogenase (Rattus norvegicus) (UniProt P04797); assay: Binding affinity to glyceraldehyde 3-phosphate dehydrogenase in Sprague-Dawley rat heart homogenate after 15 mins by chromatographic analysis; format: tissue-based
Chain of Glyceraldehyde-3-phosphate dehydrogenase (Rattus norvegicus) (P04797 whole entry): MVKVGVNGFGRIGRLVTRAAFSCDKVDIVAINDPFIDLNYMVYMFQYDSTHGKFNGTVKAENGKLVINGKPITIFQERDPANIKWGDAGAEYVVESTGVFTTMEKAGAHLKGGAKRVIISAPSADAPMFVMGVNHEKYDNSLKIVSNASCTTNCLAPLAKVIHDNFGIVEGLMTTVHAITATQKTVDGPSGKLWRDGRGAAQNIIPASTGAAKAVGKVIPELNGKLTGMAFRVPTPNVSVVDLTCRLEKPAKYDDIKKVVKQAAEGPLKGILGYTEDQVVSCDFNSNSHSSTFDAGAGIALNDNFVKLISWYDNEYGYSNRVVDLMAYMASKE

[13] = biological target: Glutamate dehydrogenase 1, mitochondrial (Rattus norvegicus) (UniProt P10860); assay: Binding affinity to mitochondrial glutamate dehydrogenase 1 in Sprague-Dawley rat heart homogenate after 15 mins by chromatographic analysis; format: tissue-based
Chain of Glutamate dehydrogenase 1, mitochondrial (Rattus norvegicus) (P10860 whole entry): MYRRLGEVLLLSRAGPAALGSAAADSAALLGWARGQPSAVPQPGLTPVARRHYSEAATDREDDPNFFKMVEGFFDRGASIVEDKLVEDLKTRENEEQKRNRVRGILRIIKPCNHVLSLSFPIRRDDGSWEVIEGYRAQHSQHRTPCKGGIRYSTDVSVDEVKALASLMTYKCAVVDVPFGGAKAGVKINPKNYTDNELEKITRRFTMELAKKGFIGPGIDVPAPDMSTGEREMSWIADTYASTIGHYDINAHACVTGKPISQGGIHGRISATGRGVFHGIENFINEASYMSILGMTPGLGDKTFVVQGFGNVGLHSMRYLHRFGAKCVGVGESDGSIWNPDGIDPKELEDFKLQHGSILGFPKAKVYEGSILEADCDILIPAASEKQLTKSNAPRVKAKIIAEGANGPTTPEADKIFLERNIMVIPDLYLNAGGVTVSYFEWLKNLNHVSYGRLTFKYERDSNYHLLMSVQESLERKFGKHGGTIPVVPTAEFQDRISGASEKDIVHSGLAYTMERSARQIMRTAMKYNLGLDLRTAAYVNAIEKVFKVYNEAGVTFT

[14] = biological target: L-lactate dehydrogenase B chain (Rattus norvegicus) (UniProt P42123); assay: Binding affinity to L-lactate dehydrogenase B chain in Sprague-Dawley rat heart homogenate after 15 mins by chromatographic analysis relative to rosiglitazone; format: tissue-based
Chain of L-lactate dehydrogenase B chain (Rattus norvegicus) (P42123 whole entry): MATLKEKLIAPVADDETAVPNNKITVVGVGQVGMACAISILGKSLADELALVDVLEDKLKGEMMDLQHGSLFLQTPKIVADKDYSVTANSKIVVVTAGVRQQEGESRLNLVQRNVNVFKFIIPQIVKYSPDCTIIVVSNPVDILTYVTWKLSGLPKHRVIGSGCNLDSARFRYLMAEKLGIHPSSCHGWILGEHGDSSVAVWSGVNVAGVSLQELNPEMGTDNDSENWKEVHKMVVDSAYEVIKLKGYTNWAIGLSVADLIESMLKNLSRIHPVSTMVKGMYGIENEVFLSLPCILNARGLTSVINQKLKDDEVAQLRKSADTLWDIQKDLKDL

[15] = biological target: Malate dehydrogenase, mitochondrial (Rattus norvegicus) (UniProt P04636); assay: Binding affinity to mitochondrial malate dehydrogenase in Sprague-Dawley rat heart homogenate after 15 mins by chromatographic analysis; format: tissue-based
Chain of Malate dehydrogenase, mitochondrial (Rattus norvegicus) (P04636 whole entry): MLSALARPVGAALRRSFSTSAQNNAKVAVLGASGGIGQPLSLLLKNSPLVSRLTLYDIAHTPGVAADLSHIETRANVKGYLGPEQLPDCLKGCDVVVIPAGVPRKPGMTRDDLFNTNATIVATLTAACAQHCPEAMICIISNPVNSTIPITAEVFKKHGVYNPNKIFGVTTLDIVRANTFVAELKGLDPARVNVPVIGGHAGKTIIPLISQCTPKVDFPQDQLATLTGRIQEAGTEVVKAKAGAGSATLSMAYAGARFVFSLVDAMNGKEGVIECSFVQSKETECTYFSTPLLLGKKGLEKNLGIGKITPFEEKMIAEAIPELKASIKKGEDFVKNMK

[16] = biological target: T2, Long-chain specific acyl-CoA dehydrogenase, mitochondrial (Rattus norvegicus) (UniProt P15650); assay: Binding affinity to mitochondrial long-chain specific acyl-CoA dehydrogenase in Sprague-Dawley rat heart homogenate after 15 mins by chromatographic analysis relative to rosiglitazone; format: tissue-based
T2 sequence (whole entry): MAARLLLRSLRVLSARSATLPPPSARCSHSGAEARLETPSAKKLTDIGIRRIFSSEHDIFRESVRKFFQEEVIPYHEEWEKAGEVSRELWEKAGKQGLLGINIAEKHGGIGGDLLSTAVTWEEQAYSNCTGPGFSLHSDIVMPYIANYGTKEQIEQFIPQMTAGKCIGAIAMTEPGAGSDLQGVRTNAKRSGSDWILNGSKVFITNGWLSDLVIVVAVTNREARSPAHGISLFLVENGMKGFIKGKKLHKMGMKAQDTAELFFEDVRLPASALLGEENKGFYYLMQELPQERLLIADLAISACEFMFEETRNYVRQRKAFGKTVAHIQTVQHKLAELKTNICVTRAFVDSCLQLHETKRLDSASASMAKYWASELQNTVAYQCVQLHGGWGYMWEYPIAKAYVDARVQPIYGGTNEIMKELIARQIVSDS

Measured: Activity

O=C1NC(=O)C(Cc2ccc(O)cc2)S1 (stereo unspecified)
active: all assays above
